According to patent publication US7652038B2, “Methods of reducing angiogenesis” (The Board of Trustees of the Leland Stanford Jr. University, priority 2002, dated 2010):

Legend:
HMVECs and HUVECs = experiment: In vitro Matrigel assay (capillary network / tube formation); type: cell-based, human
Experimental: In Vitro Matrigel Assay. Human umbilical vein endothelial cells (HUVEC) and human microvascular endothelial cells (HMVEC; up to 5th passage; Bio Whittaker, Walkersville, Md.) were grown in EGM-MV supplemented with 5% FBS, 0.5 ml hEGF, 0.2 ml hydrocortisone, 2.0 ml BBE, and 0.5 ml GA-1000 (Bio Whittaker). Four-well chamber slides were coated with growth factor enhanced Matrigel (Becton Dickinson, Bedford, Mass.) and equilibrated with basal medium. Kureishi et al. (2000) Nat Med 6:1004-1010. Cells were seeded on top of the gel at a density of 10^3 cells/well in fresh basal medium containing 5% FBS. After two hours, increasing concentrations of mecamylamine (10^−12 to 10^−4 M; Sigma, St. Louis, Mont.) or vehicle were added to the medium. Development of tube formation in the center of each well was investigated at 24, 48, and 72 hours. We studied critical steps in angiogenesis, such as migration and differentiation, using an in vitro model of angiogenesis with ECs forming a network of capillary-like structures. After seeding the cells on growth factor-enriched matrigel, HMVECs and HUVECs, respectively, manifested tube formation within 48 hours in response to control medium.

C57BL/6J mice [1] = experiment: Disc angiogenesis system; type: in vivo; conditions: for crosssectional area of the disc covered with new vessels (neovascularization of the disc): systemic treatment via osmotic minipumps, median, control 54.9%
Experimental: Disc Angiogenesis System. A disc of polyvinyl alcohol sponge (Rippey, El Dorado Hills, Calif.), covered with nitrocellulose cell-impermeable filters (Millipore, Burlington, Mass.), allows capillaries to grow only through the rim of the disc. The randomized treatment for the 2-week study period was delivered via osmotic minipumps (0.25 μl/hr; Durect, Cupertino, Calif.). Those discs were subcutaneously implanted in the back of 10-week old C57BL/6J mice or in some experiments in the back of α7-nAChR-deficient (B6.129S7-Chrna7^trn1Bay) mice (n=6 per group; Jackson, Bar Harbor, Me.). Two weeks later, mice were anesthetized and infused with space-filling fluorescent microspheres (0.2 μm, Molecular Probes, Eugene, Oreg.) through the left ventricle of the heart. Both the area of the disc covered with perfused vessels and the vessel density were quantified. Heeschen et al. (2001) Nat Med 7:833-837; and Jang et al. (2000) Circulation 102:1414-1419 (3, 10) The α7-nAChR in growing vessels were identified by immunohistochemistry (Santa Cruz Biotechnology, Santa Cruz, Calif.). To verify the specificity of the staining, discs explanted from homozygous α7-nAChR^−/− mice were used as a negative control.
To determine if the nAChR are involved in the native angiogenesic response in vivo, we used the disc angiogenesis system. In the control group, 54.9% (95% CI 46.1-63.6) of the crosssectional area of the disc was covered with new vessels when the disc was removed three weeks after subcutaneous implantation. FIG. 1.

[2] = test system: Lewis lung carcinoma cells; experiment: Lewis lung tumor model, orthotopic implantation into lung parenchyma; type: in vivo, mice
Experimental: (§1) Lewis Lung Tumor Model. A total of 10^6 Lewis lung carcinoma cells (ATCC, Manassas, Va.) were cultured in RPMI 1640 supplemented with 10% FBS. Cancer cells were subcutaneously injected into each flank or orthotopically introduced into the lung parenchyma via a limited skin incision without thoracotomy of 10-week old C57BL/6J wild type mice. Animals received mecamylamine (3 mg/kg) or vehicle via osmotic mini pumps. Mice injected subcutaneously with tumor cells were checked on a daily basis for the presence of a palpable tumor and tumor growth was measured with a gauge. Tumor size was calculated as the product of length×width×0.5 cm^3. When mice in any group were bearing tumors>1.5 cm^3, the experiment was stopped and all animals sacrificed for histological evaluation. Tumor vessels were identified by infusion of space-filling fluorescent microspheres (0.2 μm; Molecular Probes) via the left ventricle of the heart.
(§2) The previous studies indicate that nAChR play an important role in angiogenesis in a broad spectrum of experimental conditions. To determine if mecamylamine could influence tumor angiogenesis, we used the in vivo Lewis lung cancer model. […] This late decrease in tumor growth in the mecamylamine group corresponded with a reduced vascularization of the tumor tissue. […] In another experiment, we orthotopically implanted Lewis lung cancer cells into the lung parenchyma. Larger tumors in the control group required discontinuation of the experiment after 17 days (tumor volume of 0.62 cm^3 (95% CI 0.37-0.85) versus 0.45 cm^3 (95% CI 0.28-0.66); P<0.001).

Lewis lung cancer cells = experiment: Cell culture of Lewis lung cancer cells: proliferation and apoptosis during hypoxia; type: cell-based
Text: In subsequent cell culture experiments, we investigated whether this reduced tumor growth may also be related to a direct anti-proliferative effect of mecamylamine on the cancer cells. […] We also investigated the effects of increasing mecamylamine concentrations on the percentage of cells undergoing apoptosis during hypoxia using flow cytometry.

CD34+/Flk-1+ cells = experiment: FACS of endothelial progenitor cells in hind limb ischemia model; type: in vivo, mice; conditions: systemic administration
Experimental: FACS. Fluorescence-activated cell sorting was used to identify the cellular population mobilized by ischemia and ischemia plus mecamylamine, respectively. At each time point (baseline, 3, 7, 14 days), blood was obtained from the right atrium. Bone marrow was isolated from bilateral femurs and tibias of each animal and incubated in HBSS (1% FCS) on ice. Peripheral blood and bone marrow cells were incubated with fluorescent-labeled antibodies and analyzed with a FACS-Vantage flow cytometer (Becton Dickinson, Franklin Lakes, N.J.). FITC-conjugated antibody against mouse CD34 and PE-conjugated antibody against mouse Flk-1 (BD PharMingen, San Diego, Calif.) were used as endothelial lineage markers. The analysis of CD34+ and Flk-1+ cells was performed after gating for monocyte size. Biotinylated antibodies against MAC-1 (BD PharMingen) conjugated to Avidin-Texas Red (BD PharMingen) were used as a monocyte/macrophage lineage marker after gating for monocyte cell size with the exclusion of granulocytes that were marked by Ly-6G GR-1 against mouse conjugated to APC (BD PharMingen). […] Data were analyzed using FloJo software (Becton Dickinson).
Table 1 presents the data, expressed as percentage of endothelial progenitor cells in bone marrow (BM) and peripheral blood (PB) before and after ligation of the femoral artery in the murine model of hind limb ischemia.

[3] = test system: Lewis lung carcinoma cells; experiment: Lewis lung tumor model, subcutaneous; type: in vivo, mice
Experimental: as §1, §2

C57BL/6J mice [4] = experiment: Murine model of hind limb ischemia; type: in vivo; conditions: for median diameter of collateral vessels / number of collateral vessels: ischemic limb; for median diameter of collateral vessels: control 0.12 mm; for number of collateral vessels: control 7.5
Experimental: Murine Model of Hind Limb Ischemia. In 10-week old C57BL/6J mice, the distal end of the external iliac artery and the deep and superficial femoral artery were ligated (n=8 animals per group). Mecamylamine was administered for three weeks by daily intramuscular injection. Serum VEGF levels were determined with a mouse VEGF ELISA kit (R&D System, Minneapolis, Minn.). Capillary density was determined in the adductor and semimembranous muscles. In 10 μm cryostat sections, cut transverse to the mid-belly of the muscle, capillaries were identified by monoclonal antibodies against CD31 (BD PharMingen, San Diego, Calif.) and myocytes were counterstained with eosin (Sigma). Capillary density for each section was determined in ten randomly selected fields and is expressed as a ratio of capillaries to myocytes.
To determine if nAChR play an important role in the setting of angiogenesis in response to ischemia, we employed the murine model of hind limb ischemia. After unilateral ligation of the superficial and deep femoral artery, we administered mecamylamine or vehicle by intramuscular injections into the ischemic hind limb on a daily basis for a period of three weeks. Animals (each group n=8) received 0, 0.05, or 0.5 μg/kg of mecamylamine. […] We achieved similar results when we administered mecamylamine systemically via osmotic minipumps (5.0 μg/kg; 0.24 (95% CI 0.19-0.28); P<0.001).
Accordingly, we identified collaterals by double staining for CD31 (ECs) and α-actin (SMCs) using confocal microscopy. The number of collaterals was quantified on cross-sections by identifying vascular lumen lined by CD31-positive endothelium, that were coated by an actin-positive vascular smooth muscle wall, with vessel diameters of at least 0.02 mm.

## CNC1(C)C2CCC(C2)C1(C)C (stereo not shown) [mecamylamine]
HMVECs and HUVECs; 10^−6 M, treatment stopped after 36 hours, network-like structures at 72 hours
  reversibility of effect on network formation: reversible
HMVECs and HUVECs; medium supplemented with 10^−4 to 10^−12 M, growth factor-enriched matrigel
  network formation (tube formation): network formation was inhibited
C57BL/6J mice [1]; disc angiogenesis system
  angiogenesis in vivo (FIG. 1): inhibits angiogenesis in vivo
C57BL/6J mice [1]
  crosssectional area of the disc covered with new vessels (neovascularization of the disc): 14.3%
[2]; Lewis lung cancer model, control 152.2
  systemic levels of VEGF: 78.7 pg/mL
[2]; orthotopic, after 17 days, control 0.62
  tumor volume: 0.45 cm^3
[2]; orthotopic, control 1.56
  tumor vascularization: 0.98 capillaries/mm^2
Lewis lung cancer cells; 10^−6 M during hypoxia, control 13%
  cells positive for Annexin V: 12%
Lewis lung cancer cells; increasing concentrations, flow cytometry, versus control group
  percentage of cells undergoing apoptosis during hypoxia: no difference was observed
Lewis lung cancer cells; up to 48 hours of treatment
  number of Lewis lung cancer cells (direct anti-proliferative effect): did not observe a significant change
CD34+/Flk-1+ cells
  number of CD34+/Flk-1+ cells in the bone marrow: reduced the number of CD34^+/Flk-1^+ cells in the bone marrow
[3]; 21-day follow-up, control 1.21
  tumor growth (tumor size): 0.85 cm^3
[3]; Lewis Lung tumor model
  advanced tumor growth (FIG. 5): significantly less tumor growth
[3]; subcutaneous tumor, control 0.82
  capillary density of tumor tissue: 0.56 capillaries/mm^2
C57BL/6J mice [4]; 0.5 μg/kg daily intramuscular injection into ischemic hind limb, 3 weeks, control 0.45
  capillary density (angiogenic response): 0.26 capillaries/myocyte
C57BL/6J mice [4]; high dose
  median diameter of collateral vessels: 0.07 mm
  number of collateral vessels: 6.2
C57BL/6J mice [4]; low dose
  median diameter of collateral vessels: 0.09 mm
  number of collateral vessels: 7.1
C57BL/6J mice [4]; murine model of hind limb ischemia
  capillary density compared to control (FIG. 3): decreased capillary density in a dose-dependent fashion
C57BL/6J mice [4]; systemically via osmotic minipumps, 5.0 μg/kg
  capillary density (angiogenic response): 0.24 capillaries/myocyte

## C[N+](C)(C)CCCCCC[N+](C)(C)C [hexamethonium]
C57BL/6J mice [1]
  crosssectional area of the disc covered with new vessels (neovascularization of the disc): 11.5%
